The experiment has as its target T1, Epidermal growth factor receptor (EGFR) kinase (Homo sapiens, UniProt P00533).
T1 construct: EGFR protein (GST-tagged)
Briefly: HTRF KinEASE-TK kinase assay with GST-tagged EGFR. It counts as biochemical.

T1 sequence (P00533 25-1210): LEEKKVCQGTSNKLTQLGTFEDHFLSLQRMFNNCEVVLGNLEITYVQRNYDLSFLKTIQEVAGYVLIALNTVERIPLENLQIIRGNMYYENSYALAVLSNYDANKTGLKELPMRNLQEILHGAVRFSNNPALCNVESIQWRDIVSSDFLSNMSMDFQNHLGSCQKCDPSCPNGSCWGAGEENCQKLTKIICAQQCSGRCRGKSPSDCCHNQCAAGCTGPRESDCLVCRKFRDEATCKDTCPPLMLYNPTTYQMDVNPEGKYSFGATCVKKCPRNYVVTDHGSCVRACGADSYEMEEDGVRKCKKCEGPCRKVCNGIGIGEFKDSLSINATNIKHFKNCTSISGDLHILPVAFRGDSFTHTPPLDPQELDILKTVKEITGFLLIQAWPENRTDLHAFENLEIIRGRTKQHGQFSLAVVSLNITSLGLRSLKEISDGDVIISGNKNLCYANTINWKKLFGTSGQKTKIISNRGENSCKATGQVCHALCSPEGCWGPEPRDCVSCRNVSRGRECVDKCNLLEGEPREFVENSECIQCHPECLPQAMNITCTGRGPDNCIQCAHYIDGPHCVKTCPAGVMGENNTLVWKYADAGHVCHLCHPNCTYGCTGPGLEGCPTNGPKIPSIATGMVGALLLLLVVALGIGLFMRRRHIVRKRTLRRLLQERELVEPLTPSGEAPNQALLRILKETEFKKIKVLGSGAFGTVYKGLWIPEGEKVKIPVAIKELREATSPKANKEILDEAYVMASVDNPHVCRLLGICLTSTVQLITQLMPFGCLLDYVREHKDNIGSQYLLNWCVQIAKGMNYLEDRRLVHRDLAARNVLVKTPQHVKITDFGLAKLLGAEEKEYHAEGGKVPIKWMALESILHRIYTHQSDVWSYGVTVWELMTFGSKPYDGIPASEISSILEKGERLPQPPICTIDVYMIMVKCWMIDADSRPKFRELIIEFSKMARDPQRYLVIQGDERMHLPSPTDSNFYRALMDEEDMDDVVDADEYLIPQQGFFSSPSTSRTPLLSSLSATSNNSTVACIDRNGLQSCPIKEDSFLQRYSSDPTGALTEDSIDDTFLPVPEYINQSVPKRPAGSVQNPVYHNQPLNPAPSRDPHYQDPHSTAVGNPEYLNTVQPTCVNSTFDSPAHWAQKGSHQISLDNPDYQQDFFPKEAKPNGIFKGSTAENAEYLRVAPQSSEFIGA

Turning to `CC(C)=CCC[C@](C)(O)[C@H]1CC[C@]2(C)[C@@H]1[C@H](O)C[C@@H]1[C@@]3(C)CC[C@H](O[C@@H]4O[C@H](CO)[C@@H](O)[C@H](O)[C@H]4O)C(C)(C)[C@@H]3CC[C@]12C` [20(S)-ginsenoside Rh2], the IC50 (usually the point on the concentration scale where inhibition reaches its midpoint) amounted to 2780 ± 160 nM.

The record behind these values is publication PMC8803441, “Identification of 20(S)-Ginsenoside Rh2 as a Potential EGFR Tyrosine Kinase Inhibitor” (Oxidative Medicine and Cellular Longevity, 2022).
